# Reference: ChEMBL document CHEMBL2021790, “Pyridone methylsulfone hydroxamate LpxC inhibitors for the treatment of serious gram-negative infections” (J Med Chem, 2012)
# Key:
# [1] = tested on: Rattus norvegicus; test: Free AUC in rat at 10 mg/kg; format: ADME, organism-based; parameters: dose 10 mg/kg; details: in vivo
# [2] = Thermodynamic solubility of the compound in thermosol at pH 7.4; format: physicochemical; details: buffer, read-out: Therm_solubility
# [3] = Thermodynamic solubility of the compound in thermosol at pH 9; format: physicochemical; details: buffer, read-out: Therm_solubility
# [4] = Fraction unbound in rat plasma relative to untreated control; format: ADME, cell-free
# [5] = tested on: Klebsiella pneumoniae; test: microbe, parasite or virus in culture
# Description: Antimicrobial activity against Klebsiella pneumoniae after 16 to 20 hrs by 2-fold microbroth dilution method
# [6] = AUC in rat at 10 mg/kg; format: ADME, organism-based; parameters: dose 10 mg/kg; details: plasma
# [7] = tested on: Acinetobacter sp.; test: Antimicrobial activity against Acinetobacter sp. after 16 to 20 hrs by 2-fold microbroth dilution method; format: functional
# [8] = tested on: Pseudomonas aeruginosa; test: Antimicrobial activity against Pseudomonas aeruginosa PA3919 with (delta(mexAB-OprM)delta(mexXY)delta(MexZ) phenotype after 16 to 20 hrs by 2-fold microbroth dilution method; format: functional
# [9] = tested on: Pseudomonas aeruginosa; test: microbe, parasite or virus in culture
# Description: Antimicrobial activity against Pseudomonas aeruginosa after 16 to 20 hrs by 2-fold microbroth dilution method
# [10] = tested on: Pseudomonas aeruginosa; test: Antimicrobial activity against wild type Pseudomonas aeruginosa PA01 after 16 to 20 hrs by 2-fold microbroth dilution method; format: functional
# [11] = tested on: Escherichia coli; test: microbe, parasite or virus in culture
# Description: Antimicrobial activity against Escherichia coli after 16 to 20 hrs by 2-fold microbroth dilution method
# [12] = Half life in rat at 10 mg/kg; format: ADME, organism-based; parameters: dose 10 mg/kg; details: in vivo
# [13] = tested on: Citrobacter freundii; test: microbe, parasite or virus in culture
# Description: Antimicrobial activity against Citrobacter freundii after 16 to 20 hrs by 2-fold microbroth dilution method
# [14] = Fraction unbound in human plasma relative to untreated control; format: ADME, cell-free
# [15] = Thermodynamic solubility of the compound in thermosol at pH 3.0; format: physicochemical; details: buffer, read-out: Therm_solubility
# [16] = tested on: Klebsiella aerogenes; test: microbe, parasite or virus in culture
# Description: Antimicrobial activity against Enterobacter aerogenes after 16 to 20 hrs by 2-fold microbroth dilution method
# [17] = Clearance in rat at 10 mg/kg; format: ADME, organism-based; parameters: dose 10 mg/kg; details: in vivo
# [18] = Volume of distribution at steady state in rat at 10 mg/kg; format: ADME, organism-based; parameters: dose 10 mg/kg; details: in vivo, read-out: Vdss
fAUC [1] [ng·h/mL],solubility thermodynamic [2] [µg/mL],solubility thermodynamic [3] [µg/mL],fraction unbound [4],MIC90 [5] [µg/mL],AUC [6] [ng·h/mL],MIC90 [7] [µg/mL],MIC [8] [µg/mL],MIC90 [9] [µg/mL],MIC [10] [µg/mL],MIC90 [11] [µg/mL],half-life [12] [h],MIC90 [13] [µg/mL],fraction unbound [14],solubility thermodynamic [15] [µg/mL],MIC90 [16] [µg/mL],clearance [17] [mL/min/kg],Vd [18] [L/kg],Structure (SMILES)
75,3.9,260,0.026,16,2900,32,0.008,4,0.125,2,3.2,8,0.023,7.3,4,57,3.8,C[C@@](CCc1ccc(-c2ccccc2)cc1)(C(=O)NO)S(C)(=O)=O
,480,> 16000,0.28,16,,32,0.06,2,0.5,8,,8,0.14,410,16,,,C[C@@](CCn1ccc(-c2ccccc2)cc1=O)(C(=O)NO)S(C)(=O)=O
740,130,> 14000,0.32,0.5,2300,> 64,0.008,1,0.125,0.25,1.4,0.5,0.31,82,0.5,72,1.7,COc1ccc(-c2ccn(CC[C@](C)(C(=O)NO)S(C)(=O)=O)c(=O)c2)c(F)c1
680,9.2,2740,0.13,0.125,5200,64,0.015,1,0.25,0.06,0.94,0.125,0.25,3.3,0.125,32,0.92,C[C@@](CCn1ccc(-c2ccc(-n3nccn3)cc2)cc1=O)(C(=O)NO)S(C)(=O)=O
